Literature values as cited in patent US20260091056A1, “COMPOSITIONS FOR CONTROLLING ODOR AND ITCH AND METHODS OF AND DEVICES FOR ADMINISTERING SAME” (Vireo Systems, Inc., priority 2020, published 2026).

Settings: at 25° C.

## boric acid
  pKa value: ~9.14
